Structures are written as SMILES.

The target of this test is Sepiapterin reductase (Homo sapiens, UniProt P35270). The test is described as follows: Inhibition of sepiapterin reductase (unknown origin).
Sepiapterin reductase, sequence (P35270 whole entry): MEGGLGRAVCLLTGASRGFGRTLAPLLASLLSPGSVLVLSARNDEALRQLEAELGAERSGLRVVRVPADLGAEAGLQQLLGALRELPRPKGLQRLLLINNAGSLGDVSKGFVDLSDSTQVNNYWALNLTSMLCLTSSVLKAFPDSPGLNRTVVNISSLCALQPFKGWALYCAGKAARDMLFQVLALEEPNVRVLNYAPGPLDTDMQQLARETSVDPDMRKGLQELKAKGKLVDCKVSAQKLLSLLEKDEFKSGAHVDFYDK

As for `COc1ccc(O)c(C(=O)c2cnc3c(c2)c(C)nn3-c2cccc(Cl)c2)c1`, the IC50 (read-out: IC50) is over 19000 nM.

Regarding `Cc1cccc(-n2nc(C)c3cc(C(=O)c4ccccc4O)cnc32)c1`, the IC50 (read-out: IC50) came out at 1360 nM.

Take `Cc1nn(C2CCCS2(=O)=O)c2ncc(C(=O)c3cc(F)ccc3O)cc12` (stereo not given): the IC50 (read-out: IC50) turned out to be 20 nM.

For `FC(F)(F)Oc1cccc(-n2nnnc2N2CCN(c3ncnc4sc5c(c34)CCC5)CC2)c1`, for the setting “read-out: pIC50 (converted)”, the IC50 was 7590 nM.

In the case of `Cc1ccc(-n2nc(C)c3cc(C(=O)c4cc(C)ccc4O)cnc32)cc1`, the IC50 (read-out: IC50) was over 19000 nM.

Molecule `CCOC(=O)C1=C(O)C2(CCC(=CC(=O)OC)CC2)c2ccc(Cl)cc2C1=O` (stereo not given) gave a pIC50 of 5.39.

Take `Cc1nn(-c2ccccn2)c2ncc(C(=O)c3cc(F)ccc3O)cc12`: the IC50 (read-out: IC50) was 40 nM.

As to `Cc1ccc(O)c(C(=O)c2cnc3c(c2)c(C)nn3-c2ccccc2)c1`, the IC50 (read-out: IC50) was over 19000 nM.

Turning to `O=S(=O)(Nc1ccccn1)c1ccc2c(c1)OCCO2`, where the note is “read-out: pIC50 (converted)”, the IC50 was 603 nM.

For `Cc1nn(-c2ccccc2)c2ncc(C(=O)c3cc(F)ccc3O)cc12`, the IC50 (read-out: IC50) turned out to be 180 nM.

As to `CC1(C)C(O)=C(C(N)=O)C(=O)c2cc(C(=O)NCCc3ccccc3)ccc21`, the IC50 (read-out: pIC50 (converted)) is 3240 nM.

On to `O=S(=O)(Nc1nccs1)c1ccc2c(c1)OCCN2CCc1ccncc1`, for which the IC50 (read-out: pIC50 (converted)) was 575 nM.

As for `O=C(O)c1ccc2c(C(c3ccc(Cl)cc3Cl)c3c[nH]c4cc(C(=O)O)ccc34)c[nH]c2c1`, the IC50 (read-out: pIC50 (converted)) was 9550 nM.

As for `Cc1nn(-c2ccccn2)c2ncc(C(=O)N(C)C)cc12`, the IC50 (read-out: IC50) was over 19000 nM.

For the molecule `O=C(Nc1cccc(C(F)(F)F)c1)N1CCC(S(=O)(=O)Nc2nccs2)CC1`, the IC50 (read-out: pIC50 (converted)) is 9550 nM.

As for `Cc1nn(C2CCOC2)c2ncc(C(=O)c3ccccc3O)cc12` (stereo not given), the IC50 (read-out: IC50) is 30 nM.

Regarding `Cc1nn(-c2ccccc2F)c2ncc(C(=O)c3ccccc3O)cc12`, the IC50 (read-out: IC50) came to 50 nM.

As to `Cc1cc(C(=O)C2C(=O)CC(C)CC2=O)c(C)c2c1S(=O)(=O)CCc1cn(C)nc1-2` (stereo not given), the IC50 (read-out: pIC50 (converted)) was 324 nM.

Take `Cc1ccc(C(=O)c2ccccc2O)c(O)n1`: the IC50 (read-out: pIC50 (converted)) is 8130 nM.

With `Cc1nn(C2CCOCC2)c2ncc(C(=O)c3ccccc3O)cc12`, where the note is “read-out: IC50”, the IC50 is 20 nM.

As to `CCn1ncc(C(=O)c2cc(Cl)c(N(C)S(=O)(=O)N(C)C)cc2OC)c1O`, where the note is “read-out: pIC50 (converted)”, the IC50 was 57.5 nM.

For the molecule `Cc1nn(CCO)c2ncc(C(=O)c3cc(Cl)ccc3O)cc12`, the IC50 (read-out: IC50) worked out at 40 nM.

Take `CCOC(=O)c1c(C)n(C)c2cc(Nc3ccccc3)c(O)cc12`: the IC50 (read-out: pIC50 (converted)) is 6760 nM.

For `Cc1nn(-c2ccncn2)c2ncc(C(=O)c3ccccc3O)cc12`, the IC50 (read-out: IC50) is 140 nM.

Take `Cc1nn(-c2ccc(F)cc2)c2ncc(C(=O)c3ccccc3O)cc12`: the IC50 (read-out: IC50) worked out at 820 nM.

Consider `COc1ccc(O)c(C(=O)c2cnc3c(c2)c(C)nn3-c2cccc(C)c2)c1`, for which the IC50 (read-out: IC50) was over 19000 nM.

As for `CC1(C)C=Cc2c(c(CCO)c3occ(-c4ccc(O)c(O)c4)c(=O)c3c2O)O1`, under “read-out: pIC50 (converted)”, the IC50 is 6170 nM.

On to `Cc1nn(CCO)c2ncc(C(=O)c3cc(F)ccc3O)cc12`, for which the IC50 (read-out: IC50) came to 50 nM.

With `Cc1nn(C)c2ncc(C(=O)c3ccccc3O)cc12`, the IC50 (read-out: IC50) turned out to be 80 nM.

Take `Cc1ccc(O)c(C(=O)c2cnc3c(c2)c(C)nn3-c2ccccn2)c1`: under “read-out: IC50”, the IC50 is 1720 nM.

Take `Cc1nn(C)c2ncc(C(=O)c3cc(F)ccc3O)cc12`: the IC50 (read-out: IC50) amounted to 40 nM.

Take `Cc1nn(-c2ncccn2)c2ncc(C(=O)c3ccccc3O)cc12`: the IC50 (read-out: IC50) amounted to 140 nM.

As for `COc1cc(C(F)(F)F)ccc1-c1nccc2cc(S(=O)(=O)Nc3ccc(F)cn3)ccc12`, the IC50 (read-out: pIC50 (converted)) is 1780 nM.

Regarding `Cc1n[nH]c2ncc(C(=O)c3cc(F)ccc3O)cc12`, the IC50 (read-out: IC50) is 50 nM.

As to `Cc1nn(-c2ccccn2)c2ncc(C(=O)O)cc12`, for the setting “read-out: IC50”, the IC50 is over 19000 nM.

`Cc1nn(-c2ccccc2)c2ncc(C(=O)c3ccccc3O)cc12`: the IC50 (read-out: IC50) was determined as 860 nM.

As to `O=C(CN(c1cccc(Cl)c1)S(=O)(=O)c1cccnc1)N[C@H]1CC[C@H](n2c(=O)[nH]c3ccccc32)CC1`, the IC50 (read-out: pIC50 (converted)) is 9120 nM.

In the case of `Cc1ccc(O)c(C(=O)c2cnc3c(c2)c(C)nn3C)c1`, for the setting “read-out: IC50”, the IC50 came out at 970 nM.

With `Cc1ccc(O)c(C(=O)c2cnc3c(c2)c(C)nn3-c2ccc(F)cc2)c1`, the IC50 (read-out: IC50) was over 19000 nM.

For `CCOC(=O)CNCc1c(C(=O)CC)c2cc(OC)c(Br)cc2n1C`, the IC50 (read-out: pIC50 (converted)) is 7940 nM.

On to `COc1cc(C(F)(F)F)ccc1-c1nc(Cl)cc2cc(S(=O)(=O)Nc3nccs3)ccc12`, for which, where the note is “read-out: pIC50 (converted)”, the IC50 is 1780 nM.

Turning to `COc1ccc(O)c(C(=O)c2cnc3c(c2)c(C)nn3-c2ccccc2)c1`, the IC50 (read-out: IC50) is 17000 nM.

Take `Cc1nn(-c2ccccn2)c2ncc(C(=O)c3ccccc3O)cc12`: the IC50 reads like this: (read-out: IC50) 180 nM; (read-out: pIC50 (converted)) 66.1 nM.

Take `COc1ccc(O)c(C(=O)c2cnc3c(c2)c(C)nn3C)c1`: where the note is “read-out: IC50”, the IC50 worked out at 2500 nM.

`Cc1nn(-c2ccccn2)c2ncc(C(=O)c3cc(Cl)ccc3O)cc12`: the IC50 (read-out: IC50) was 80 nM.

As to `CCCc1cc(C(=O)N2CCC(C3Nc4ccccc4S(=O)(=O)N3)CC2)[nH]n1` (stereo not given), the IC50 (read-out: pIC50 (converted)) is 2950 nM.

Consider `O=C(Nc1nc2ccc(CN3CCCCC3)cc2n1[C@H]1CC[C@@H](C(=O)O)CC1)c1ccc(F)cc1`, for which the IC50 (read-out: pIC50 (converted)) was 3020 nM.

Take `Cn1nc(-c2cccnc2)c2c1NC(=O)C[C@@H]2c1ccc2cccc(O)c2n1`: the IC50 (read-out: pIC50 (converted)) is 4370 nM.

`Cc1ccnc(-n2nc(C)c3cc(C(=O)c4ccccc4O)cnc32)c1`: the IC50 (read-out: IC50) turned out to be 50 nM.

The pIC50 is −log10 of the IC50, conventionally taken in molar units.

Source of the values: ChEMBL document CHEMBL4602609, “Virtual screening to identify potent sepiapterin reductase inhibitors” (Bioorg Med Chem Lett, 2020).
